Bases are written 5' to 3'; sugars and linkages follow in the same order, as letters with counts (s phosphorothioate, o phosphodiester; PS: all linkages phosphorothioate). The collection does not say whether C is 5-methylated. l = locked nucleic acid (LNA); d = 2'-deoxy (DNA) Some results are limits rather than exact numbers.

Our source for the calcium oscillation score values is the OligoGym collection.

The series has as its target Tau. Description: rat primary cortical neurons, FLIPR, 25 uM ASO.
Turning to CTTCTCAGCCACTGTT (sugars l3 d10 l3, PS), the calcium oscillation score is 67.9 % of control.
On to “CCAATCTTCGACTGGACTCT (sugars l3 d14 l3, PS)”, for which the calcium oscillation score is 22.6 % of control.
The figure for “TGCTTACACACCACACA (sugars l2 d12 l3, PS)” is 80.5 % of control; for TTGTACACGATCTCCG (sugars l3 d10 l3, PS) it is 55.2 % of control.
For the sequence “GTTAGCCCTAAAGTCCCAGG (sugars l3 d14 l3, PS)”, the calcium oscillation score is 27.9 % of control.
As to CGTGGTCTGTCTTG (sugars l3 d8 l3, PS), the calcium oscillation score is 0 % of control.
Consider “TCTTTATTAACACTCCA (sugars l4 d10 l3, PS)”, for which the calcium oscillation score is 72.6 % of control.
As to ATTAATTACACCCCTG (sugars l3 d9 l4, PS), the calcium oscillation score was 5.47 % of control.
Next, “CGCACCAGGAACCTTCCAGA (sugars l3 d14 l3, PS)”: 28.2 % of control.
The figure for AGTCAAGCATCACGTT (sugars l3 d10 l3, PS) is 42.2 % of control; for ACCTGGCCACCTCCTG (sugars l3 d10 l3, PS) it is 28.6 % of control; for “TCCTAATTCCCAAATTCCT (sugars l2 d15 l2, PS)” it is 57.4 % of control.
Turning to AACTTACCAGTTTTTCA (sugars l4 d9 l4, PS), the calcium oscillation score is 62.3 % of control.
For the sequence “AACCATTAACTGCCTAT (sugars l4 d10 l3, PS)”, the calcium oscillation score was 53 % of control.
The figure for “TTTACCCATCTTAATTCATT (sugars l4 d14 l2, PS)” is 78.1 % of control; for “AACATATATATTACACTTC (sugars l4 d11 l4, PS)” it is 111 % of control; for “TTCCACTACAAGCTCCAC (sugars l3 d13 l2, PS)” it is 52 % of control.
As to “CTTCAGGTCTGGCATGGGCA (sugars l3 d14 l3, PS)”, the calcium oscillation score is 0 % of control.
Next, CGTGATCTTCCATCAC (sugars l3 d10 l3, PS): 127 % of control.
Next, “CTGTCACTATCACTTCA (sugars l2 d11 l4, PS)”: 75.3 % of control; GGCCACCTCCTGGTTT (sugars l3 d10 l3, PS): 39.3 % of control; “TTTCTCAATGTAACCTC (sugars l3 d10 l4, PS)”: 71.6 % of control.
The figure for TTAACTCATCAACACCT (sugars l4 d9 l4, PS) is 86.6 % of control; for “GGGCGAGTCTACCATGTCGA (sugars l3 d14 l3, PS)” it is 66 % of control.
As to TACTAGCCCACCCATC (sugars l3 d10 l3, PS), the calcium oscillation score was ≥ 200 % of control.
Take “CTTTTCTCAATGTAACC (sugars l4 d10 l3, PS)”: the calcium oscillation score is 65.9 % of control.
Consider “CTCAAACTTAAATTTATT (sugars l4 d10 l4, PS)”, for which the calcium oscillation score is 82.4 % of control.
Next, GAGAACTGGTTAGCCC (sugars l3 d10 l3, PS): 2.3 % of control; “CCAGATTCCCCAACTCA (sugars l2 d12 l3, PS)”: 76.7 % of control; “CGCCCCACTTTTAATTA (sugars l2 d12 l3, PS)”: 77.2 % of control.
The figure for “CTTTATTTCCAAATTCACTT (sugars l2 d1 l2 d12 l3, PS)” is 112 % of control.
With AATAACATTAACCCTT (sugars l4 d8 l4, PS), the calcium oscillation score is 72 % of control.
The figure for “TCATCTTTTCTAGAACCC (sugars l3 d13 l2, PS)” is 48.4 % of control.
For CCCACATAAACTCCTT (sugars l3 d10 l3, PS), the calcium oscillation score was 53.4 % of control.
In the case of “TGCACCCACTTTCCTAAT (sugars l4 d12 l2, PS)”, the calcium oscillation score is 56.2 % of control.
The figure for “TTTTTCTCTCTTAACTTTAT (sugars l4 d12 l4, PS)” is 93.2 % of control; for “TCCTCTCCTTTAAGAAA (sugars l3 d12 l2, PS)” it is 79.1 % of control.
Next, “CTTACAACCAACACTGA (sugars l3 d10 l4, PS)”: 49.7 % of control; “AGCTGGGTGGTGTCTTTGGA (sugars l3 d14 l3, PS)”: 0 % of control; “TCTCTTAACTTTATTTTATT (sugars l4 d12 l4, PS)”: 84.9 % of control.
As for “CCCCACTTTTAATTAAA (sugars l4 d10 l3, PS)”, the calcium oscillation score is 99.7 % of control.
Consider TGACCTCAACTCTACC (sugars l4 d10 l2, PS), for which the calcium oscillation score was 68.5 % of control.
Next, “TTCTTCCTTTGTAATTC (sugars l4 d11 l2, PS)”: 43.5 % of control; “TAACTCTCCTTATCTGA (sugars l2 d11 l4, PS)”: 29.7 % of control.
In the case of “CCTCCATTAAGAACCTA (sugars l2 d12 l3, PS)”, the calcium oscillation score was 90.1 % of control.
Next, CCTTTGAAAGTCCTTT (sugars l4 d9 l3, PS): 96.4 % of control; GATATTCCACACATAA (sugars l4 d8 l4, PS): 54.8 % of control.
The figure for “CATCTTCCTTTAGTTTT (sugars l4 d10 l3, PS)” is 50.9 % of control; for “GTTAAGTGATTAACCAATTA (sugars l3 d14 l3, PS)” it is 84.3 % of control; for CATGATCTTAGGCTG (sugars l3 d9 l3, PS) it is 46 % of control.
The figure for “ACAACAAACATCTAAACACC (sugars l3 d13 l4, PS)” is 84.5 % of control.
In the case of “GGCGACTTGTACACGATCTC (sugars l3 d14 l3, PS)”, the calcium oscillation score was 46.6 % of control.
As for GGTTTGTAGACTATT (sugars l3 d9 l3, PS), the calcium oscillation score is 0 % of control.
Turning to “GGGACGTGGGTGATATTGTC (sugars l3 d14 l3, PS)”, the calcium oscillation score was 0 % of control.
As for AGGTCAACTGGTTT (sugars l3 d8 l3, PS), the calcium oscillation score was 117 % of control.
On to “ACTTATCTATCCATCTAT (sugars l4 d11 l3, PS)”, for which the calcium oscillation score is 80.2 % of control.
The figure for “TTCCTAATTCCCAAATTCC (sugars l3 d14 l2, PS)” is 62.1 % of control; for “CTAATATCCTTGCTATC (sugars l3 d10 l4, PS)” it is 55.7 % of control; for “CATATTCTTCCCTTAATA (sugars l3 d13 l2, PS)” it is 81.1 % of control.
The figure for GCGTGATCTTCCAT (sugars l3 d8 l3, PS) is 182 % of control; for “ACCACTGGCGACTTGTACAC (sugars l3 d14 l3, PS)” it is 5.18 % of control; for “ATACAATAAATACCATATTC (sugars l3 d14 l3, PS)” it is 81 % of control.
“AGTGATTAACCAATTAACCG (sugars l3 d14 l3, PS)”: the calcium oscillation score was 5.18 % of control.
Next, “AGATATTCATTCCCTCA (sugars l3 d12 l2, PS)”: 53 % of control; AATAAGAAAGGAACGC (sugars l5 d7 l4, PS): 121 % of control.
Take “CCAATCAATTATATTATAT (sugars l4 d11 l4, PS)”: the calcium oscillation score was 60.8 % of control.
Next, TTAGCAGAGGAACGTG (sugars l3 d10 l3, PS): 25.9 % of control; “CATCTACTTTCTGTCACC (sugars l2 d14 l2, PS)”: 63.4 % of control; “CTTTGCTTTTACTGACCATG (sugars l3 d14 l3, PS)”: 0 % of control.
Take “ACTAGCCCACCCATCAATTT (sugars l3 d14 l3, PS)”: the calcium oscillation score was 12.9 % of control.
The figure for “AACCCCTTCAACATCAGC (sugars l2 d12 l4, PS)” is 64.9 % of control.
With “TCCCCACCCAAACTCCAA (sugars l2 d14 l2, PS)”, the calcium oscillation score was 76.5 % of control.
On to CCTTTTAATTCATTAG (sugars l4 d8 l4, PS), for which the calcium oscillation score was 59 % of control.
Next, “TGTCCTCACTTTACACAT (sugars l4 d12 l2, PS)”: 39.8 % of control.
As for “CAACAAACATCTAAACACCT (sugars l4 d13 l3, PS)”, the calcium oscillation score is 78.9 % of control.
Next, AATATTACACCATCCAA (sugars l4 d9 l4, PS): 95.7 % of control; “CCCAGCGTGATCTTCCATCA (sugars l5 d11 l4, PS)”: 106 % of control.
Next, “TGATATTATCCTTTGAGCCA (sugars l3 d14 l3, PS)”: 27.4 % of control; “TTAATTCATTTAATTCTCTT (sugars l4 d12 l4, PS)”: 86.1 % of control; “ATTTATTAATTCATAAATGA (sugars l3 d14 l3, PS)”: 46.3 % of control.
Turning to “AGCAGGTTAAGTGATTAACC (sugars l3 d14 l3, PS)”, the calcium oscillation score is 16 % of control.
The figure for “CCCACTTTTAATTAAATTTC (sugars l3 d14 l3, PS)” is 76.8 % of control.
The figure for CTGAAAGAGGGCAGCA (sugars l3 d10 l3, PS) is 36.8 % of control; for GCAGGCGCGAGCAG (sugars l3 d8 l3, PS) it is 40.6 % of control.
The figure for “TATTGAACTCACCCACTC (sugars l2 d13 l3, PS)” is 69 % of control; for “GCCACCTCCTGGTTTATGAT (sugars l3 d14 l3, PS)” it is 31.6 % of control.
As to “GTATCCAGCCATATTTCAAC (sugars l3 d14 l3, PS)”, the calcium oscillation score is 36.7 % of control.
Take “TGGCCATCTTATGCTGACCA (sugars l3 d14 l3, PS)”: the calcium oscillation score was 29.4 % of control.
Next, CGATGCTGCCGGTGGA (sugars l3 d10 l3, PS): 2.61 % of control; AAGAGGCACAAGTCCT (sugars l3 d10 l3, PS): 81.6 % of control; “CATTATTCTTTTTTTTTCCA (sugars l4 d14 l2, PS)”: 43.3 % of control.
The figure for “CCTTTTCTACTCTACTCTC (sugars l3 d14 l2, PS)” is 55.7 % of control; for GATGCAGGAGTTGTAA (sugars l3 d10 l3, PS) it is 0 % of control; for “CTTCTAGTTATACAGTTGGC (sugars l3 d14 l3, PS)” it is 40.5 % of control.
In the case of GCCTGATCACAAACCC (sugars l3 d10 l3, PS), the calcium oscillation score was 144 % of control.
The figure for CTCTGGTCAAGGCTTT (sugars l3 d10 l3, PS) is 0 % of control.
